Reference: ChEMBL document CHEMBL5303573, “Mapping human microbiome drug metabolism by gut bacteria and their genes” (Nature, 2019)

Tests used:
Type in all cases: ADME
Design in all cases: dose 2 uM
Settings in all cases: 2 µM
[1] = target: T1, SGNH hydrolase-type esterase domain-containing protein (Phocaeicola dorei, UniProt B6W1J1); experiment: (§1) The drug is tested on Bacteroides dorei strain: DSM17855 for biotransformation. The drug concentrations were measured before and after a 12-h incubation by liquid-chromatography-coupled mass spectrometry (LC–MS)
T1 sequence (B6W1J1 whole entry): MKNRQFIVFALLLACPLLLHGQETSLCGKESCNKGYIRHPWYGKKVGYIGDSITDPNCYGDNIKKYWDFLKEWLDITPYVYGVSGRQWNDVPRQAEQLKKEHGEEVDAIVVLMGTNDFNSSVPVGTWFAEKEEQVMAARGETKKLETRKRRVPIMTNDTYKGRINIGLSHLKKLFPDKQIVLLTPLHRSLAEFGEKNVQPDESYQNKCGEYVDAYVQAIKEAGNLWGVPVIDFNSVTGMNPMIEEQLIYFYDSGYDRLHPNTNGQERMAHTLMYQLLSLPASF

[2] = target: T2, Steroid 5-alpha reductase C-terminal domain-containing protein (Phocaeicola dorei, UniProt B6W0N3); experiment: as §1
T2 sequence (B6W0N3 whole entry): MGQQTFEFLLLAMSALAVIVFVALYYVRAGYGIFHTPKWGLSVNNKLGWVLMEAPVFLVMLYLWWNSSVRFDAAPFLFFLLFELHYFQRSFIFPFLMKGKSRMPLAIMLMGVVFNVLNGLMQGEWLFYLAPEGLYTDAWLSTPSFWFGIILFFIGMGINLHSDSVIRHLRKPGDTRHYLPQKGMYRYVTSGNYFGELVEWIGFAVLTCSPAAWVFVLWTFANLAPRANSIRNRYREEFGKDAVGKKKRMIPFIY

Xylanase = target: T3, Xylanase (Bacteroides thetaiotaomicron, UniProt Q8A8H5); experiment: (§2) The drug is tested on Bacteroides thetaiotaomicron strain: VPI-5482 for biotransformation. The drug concentrations were measured before and after a 12-h incubation by liquid-chromatography-coupled mass spectrometry (LC–MS)
T3 sequence (Q8A8H5 whole entry): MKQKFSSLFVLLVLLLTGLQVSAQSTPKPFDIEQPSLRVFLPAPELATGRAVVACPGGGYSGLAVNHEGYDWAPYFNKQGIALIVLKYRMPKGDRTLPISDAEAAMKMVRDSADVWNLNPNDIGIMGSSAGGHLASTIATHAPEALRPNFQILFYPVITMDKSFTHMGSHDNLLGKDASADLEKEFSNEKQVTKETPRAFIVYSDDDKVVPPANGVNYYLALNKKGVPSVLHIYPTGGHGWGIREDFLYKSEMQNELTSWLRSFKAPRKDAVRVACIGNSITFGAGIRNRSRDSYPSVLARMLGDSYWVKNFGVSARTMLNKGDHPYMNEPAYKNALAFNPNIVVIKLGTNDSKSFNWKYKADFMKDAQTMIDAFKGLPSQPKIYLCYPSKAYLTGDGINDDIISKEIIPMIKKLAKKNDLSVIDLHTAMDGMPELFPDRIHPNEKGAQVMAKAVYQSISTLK

[3] = target: T4, Lipolytic enzyme, G-D-S-L family (Bacteroides thetaiotaomicron, UniProt Q8A0C5); experiment: as §2
T4 sequence (Q8A0C5 whole entry): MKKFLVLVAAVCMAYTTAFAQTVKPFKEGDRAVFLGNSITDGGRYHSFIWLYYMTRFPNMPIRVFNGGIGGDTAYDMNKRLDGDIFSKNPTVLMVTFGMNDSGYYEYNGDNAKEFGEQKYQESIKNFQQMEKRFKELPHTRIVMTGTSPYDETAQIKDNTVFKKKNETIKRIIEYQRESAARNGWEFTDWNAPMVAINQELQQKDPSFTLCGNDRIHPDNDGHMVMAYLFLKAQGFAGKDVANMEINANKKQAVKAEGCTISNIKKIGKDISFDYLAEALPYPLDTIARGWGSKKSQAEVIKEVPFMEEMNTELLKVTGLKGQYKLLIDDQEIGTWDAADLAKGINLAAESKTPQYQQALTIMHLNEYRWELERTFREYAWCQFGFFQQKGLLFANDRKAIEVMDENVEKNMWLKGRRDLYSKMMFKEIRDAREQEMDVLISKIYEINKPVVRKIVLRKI

Acylhydrolase = target: T5, Acylhydrolase (Bacteroides thetaiotaomicron, UniProt Q8AA96); experiment: as §2
T5 sequence (Q8AA96 whole entry): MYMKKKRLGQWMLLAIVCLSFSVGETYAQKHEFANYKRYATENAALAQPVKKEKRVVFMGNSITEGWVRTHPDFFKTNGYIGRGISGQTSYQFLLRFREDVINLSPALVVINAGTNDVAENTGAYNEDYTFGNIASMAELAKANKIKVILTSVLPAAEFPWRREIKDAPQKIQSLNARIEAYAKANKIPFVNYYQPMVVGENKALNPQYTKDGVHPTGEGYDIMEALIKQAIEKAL

[4] = target: T6, Nitroreductase-like protein (Bacteroides thetaiotaomicron, UniProt Q8AB93); experiment: as §2
T6 sequence (Q8AB93 whole entry): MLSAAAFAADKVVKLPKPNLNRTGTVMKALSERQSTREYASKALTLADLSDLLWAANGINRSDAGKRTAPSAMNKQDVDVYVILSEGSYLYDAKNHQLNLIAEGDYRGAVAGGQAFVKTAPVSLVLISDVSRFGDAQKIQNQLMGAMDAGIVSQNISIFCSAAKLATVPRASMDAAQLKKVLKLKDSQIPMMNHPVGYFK

Lipoprotein = target: T7, Lipoprotein (Bacteroides thetaiotaomicron, UniProt Q8A343); experiment: as §2
T7 sequence (Q8A343 whole entry): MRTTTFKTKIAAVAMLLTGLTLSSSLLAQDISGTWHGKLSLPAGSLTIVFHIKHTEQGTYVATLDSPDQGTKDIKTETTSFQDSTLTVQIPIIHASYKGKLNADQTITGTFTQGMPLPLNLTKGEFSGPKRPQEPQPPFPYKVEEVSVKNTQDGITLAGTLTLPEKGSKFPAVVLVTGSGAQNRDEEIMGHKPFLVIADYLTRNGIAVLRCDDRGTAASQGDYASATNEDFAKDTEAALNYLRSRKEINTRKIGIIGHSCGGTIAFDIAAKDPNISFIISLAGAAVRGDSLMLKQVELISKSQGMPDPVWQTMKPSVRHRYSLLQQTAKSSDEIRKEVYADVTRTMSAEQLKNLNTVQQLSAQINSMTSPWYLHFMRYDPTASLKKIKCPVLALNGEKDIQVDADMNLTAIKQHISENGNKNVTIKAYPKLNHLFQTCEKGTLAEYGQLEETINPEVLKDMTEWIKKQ

[5] = target: T8, NADH dehydrogenase/NAD(P)H nitroreductase (Bacteroides thetaiotaomicron, UniProt Q8A8L9); experiment: as §2
T8 sequence (Q8A8L9 whole entry): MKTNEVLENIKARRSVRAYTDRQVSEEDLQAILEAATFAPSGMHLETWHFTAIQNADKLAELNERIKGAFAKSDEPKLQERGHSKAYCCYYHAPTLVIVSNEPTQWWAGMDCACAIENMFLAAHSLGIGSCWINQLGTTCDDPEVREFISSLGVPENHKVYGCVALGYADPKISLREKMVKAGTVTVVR

SMILES | Bacterial Biotransformation [1] | Bacterial Biotransformation [2] | Bacterial Biotransformation (Xylanase) | Bacterial Biotransformation [3] | Bacterial Biotransformation (Acylhydrolase) | Bacterial Biotransformation [4] | Bacterial Biotransformation (Lipoprotein) | Bacterial Biotransformation [5]
CC(=O)OCC(=O)NCCCOc1cccc(CN2CCCCC2)c1 [ROXATIDINE ACETATE] | Compound NOT metabolized | Compound NOT metabolized | Compound metabolized | Compound metabolized | Compound metabolized | Compound NOT metabolized | Compound NOT metabolized | Compound NOT metabolized
CCS(=O)(=O)CCn1c([N+](=O)[O-])cnc1C [TINIDAZOLE] | Compound NOT metabolized | Compound NOT metabolized | Compound NOT metabolized | Compound NOT metabolized | Compound NOT metabolized | Compound metabolized | Compound NOT metabolized | Compound metabolized
